Test results from ChEMBL document CHEMBL5512654, “Discovery of novel Thymol-TPP antibiotics that eradicate MRSA persisters” (Eur J Med Chem, 2024).
In brackets after ≈: the same amount, converted by molar mass. Activity calls are given as the source filed them. The rule behind the calls is not given here.

Assays:
Staphylococcus aureus [1] = experiment: Antibacterial activity against methicillin-resistant Staphylococcus aureus USA 300 assessed as inhibition of bacterial growth measured after 18 hrs by microplate reader; format: functional; conditions: read-out: MIC100
Staphylococcus aureus [2] = experiment: Antibacterial activity against methicillin-resistant Staphylococcus aureus USA 3390 assessed as inhibition of bacterial growth measured after 18 hrs by microplate reader; format: functional; conditions: read-out: MIC100
Staphylococcus aureus [3] = experiment: Antibacterial activity against Staphylococcus aureus ATCC 43300 assessed as inhibition of bacterial growth measured after 18 hrs by microplate reader; format: functional; conditions: read-out: MIC100
Klebsiella pneumoniae [4] = experiment: Antibacterial activity against Klebsiella pneumonia ATCC 700603 assessed as inhibition of bacterial growth measured after 18 hrs by microplate reader; format: functional; conditions: read-out: MIC100
Escherichia coli [5] = experiment: Antibacterial activity against Escherichia coli ATCC 25922 assessed as inhibition of bacterial growth measured after 18 hrs by microplate reader; format: functional; conditions: read-out: MIC100
Acinetobacter baumannii [6] = experiment: Antibacterial activity against Acinetobacter baumannii ATCC 1318 assessed as inhibition of bacterial growth measured after 18 hrs by microplate reader; format: functional; conditions: read-out: MIC100
Klebsiella pneumoniae [7] = experiment: Antibacterial activity against Klebsiella pneumonia 3026 assessed as inhibition of bacterial growth measured after 18 hrs by microplate reader; format: functional; conditions: read-out: MIC100
[8] = Cytotoxicity against human L02 cells incubated for 72 hrs by MTT dye reduction assay; format: toxicity, cell-based
Pseudomonas aeruginosa [9] = experiment: Antibacterial activity against Pseudomonas aeruginosa 535 assessed as inhibition of bacterial growth measured after 18 hrs by microplate reader; format: functional; conditions: read-out: MIC100
Pseudomonas aeruginosa [10] = experiment: Antibacterial activity against Pseudomonas aeruginosa ATCC 27853 assessed as inhibition of bacterial growth measured after 18 hrs by microplate reader; format: functional; conditions: read-out: MIC100
Escherichia coli [11] = experiment: Antibacterial activity against Escherichia coli 53328 assessed as inhibition of bacterial growth measured after 18 hrs by microplate reader; format: functional; conditions: read-out: MIC100
Acinetobacter baumannii [12] = experiment: Antibacterial activity against Acinetobacter baumannii ATCC 19606 assessed as inhibition of bacterial growth measured after 18 hrs by microplate reader; format: functional; conditions: read-out: MIC100
Staphylococcus aureus [13] = experiment: In vivo antibacterial efficacy in bioluminescent Staphylococcus aureus Xen29 infected in mouse topical infection model assessed as reduction in number of colonies at 8 mg/kg, sc treated 16, 24, 36, 48, […] hrs post-infection measured after 84 hrs relative to control; format: functional

Compound	MIC (Staphylococcus aureus [1])	MIC (Staphylococcus aureus [2])	MIC (Staphylococcus aureus [3])	also measured
COc1ccccc1-c1cc(C(C)C)c(O)cc1C	> 64 µg/mL	> 64 µg/mL	> 64 µg/mL	
Cc1cc(O)c(C(C)C)cc1-c1ccccc1F	16 µg/mL (≈ 65.5 µM)	16 µg/mL (≈ 65.5 µM)	8 µg/mL (≈ 32.7 µM)	
Cc1cc(O)c(C(C)C)cc1-c1ccccc1C(=O)O	8 µg/mL (≈ 29.6 µM)	8 µg/mL (≈ 29.6 µM)	16 µg/mL (≈ 59.2 µM)	
Cc1cc(OC(=O)CCCCCCCCCC[P+](c2ccccc2)(c2ccccc2)c2ccccc2)c(C(C)C)cc1-c1ccccc1.[Br-]				MIC (Klebsiella pneumoniae [4]): > 64 µg/mL; MIC (Escherichia coli [5]): > 64 µg/mL; MIC (Acinetobacter baumannii [6]): > 64 µg/mL; MIC (Klebsiella pneumoniae [7]): > 64 µg/mL; IC50 at 72 h [8]: 3.13 µg/mL; MIC (Pseudomonas aeruginosa [9]): > 64 µg/mL; MIC (Pseudomonas aeruginosa [10]): 64 µg/mL; MIC (Escherichia coli [11]): 32 µg/mL; MIC (Acinetobacter baumannii [12]): > 64 µg/mL
Cc1cc(OC(=O)CCCC[P+](c2ccccc2)(c2ccccc2)c2ccccc2)c(C(C)C)cc1-c1ccccc1.[Br-]				MIC (Klebsiella pneumoniae [4]): 32 µg/mL; MIC (Escherichia coli [5]): 16 µg/mL; MIC (Acinetobacter baumannii [6]): 8 µg/mL; MIC (Klebsiella pneumoniae [7]): 32 µg/mL; IC50 at 72 h [8]: 8.31 µg/mL; MIC (Pseudomonas aeruginosa [9]): > 64 µg/mL; MIC (Pseudomonas aeruginosa [10]): > 64 µg/mL; MIC (Escherichia coli [11]): 8 µg/mL; MIC (Acinetobacter baumannii [12]): 16 µg/mL
Cc1cc(O)c(C(C)C)cc1-c1cccc(O)c1	32 µg/mL (≈ 132 µM)	32 µg/mL (≈ 132 µM)	32 µg/mL (≈ 132 µM)	
Cc1cc(O)c(C(C)C)cc1-c1cccc(C#N)c1	16 µg/mL (≈ 63.7 µM)	8 µg/mL (≈ 31.8 µM)	32 µg/mL (≈ 127 µM)	
Cc1cc(OC(=O)CCC[P+](c2ccccc2)(c2ccccc2)c2ccccc2)c(C(C)C)cc1-c1ccccc1.[Br-]				MIC (Klebsiella pneumoniae [4]): 16 µg/mL; MIC (Escherichia coli [5]): 16 µg/mL; MIC (Acinetobacter baumannii [6]): 8 µg/mL; MIC (Klebsiella pneumoniae [7]): 32 µg/mL; IC50 at 72 h [8]: 5.04 µg/mL; MIC (Pseudomonas aeruginosa [9]): > 64 µg/mL; MIC (Pseudomonas aeruginosa [10]): 64 µg/mL; MIC (Escherichia coli [11]): 16 µg/mL; MIC (Acinetobacter baumannii [12]): 8 µg/mL
Cc1ccc(C(C)C)c(O)c1 [THYMOL]	128 µg/mL (≈ 852 µM)	256 µg/mL (≈ 1700 µM)	128 µg/mL (≈ 852 µM)	
Cc1cc(O)c(C(C)C)cc1-c1ccc(F)cc1	16 µg/mL (≈ 65.5 µM)	16 µg/mL (≈ 65.5 µM)	16 µg/mL (≈ 65.5 µM)	
Cc1ccccc1-c1cc(C(C)C)c(O)cc1C	8 µg/mL (≈ 33.3 µM)	16 µg/mL (≈ 66.6 µM)	8 µg/mL (≈ 33.3 µM)	
Cc1cc(O)c(C(C)C)cc1-c1ccncc1	128 µg/mL (≈ 563 µM)	128 µg/mL (≈ 563 µM)	128 µg/mL (≈ 563 µM)	
Cc1ccc(-c2cc(C(C)C)c(O)cc2C)cc1	16 µg/mL (≈ 66.6 µM)	8 µg/mL (≈ 33.3 µM)	8 µg/mL (≈ 33.3 µM)	
Cc1cc(O)c(C(C)C)cc1-c1ccccc1	8 µg/mL (≈ 35.3 µM)	16 µg/mL (≈ 70.7 µM)	16 µg/mL (≈ 70.7 µM)	IC50 at 72 h [8]: 13.5 µg/mL (≈ 59.5 µM)
Cc1cc(O)c(C(C)C)cc1Cl [CHLOROTHYMOL]	64 µg/mL (≈ 347 µM)	64 µg/mL (≈ 347 µM)	64 µg/mL (≈ 347 µM)	
Cc1cc(O)c(C(C)C)cc1Br	64 µg/mL (≈ 279 µM)	32 µg/mL (≈ 140 µM)	64 µg/mL (≈ 279 µM)	
Cc1cc(O)c(C(C)C)cc1-c1ccc(C(F)(F)F)cc1	4 µg/mL (≈ 13.6 µM)	8 µg/mL (≈ 27.2 µM)	4 µg/mL (≈ 13.6 µM)	
Cc1cc(OC(=O)CCCCCC[P+](c2ccccc2)(c2ccccc2)c2ccccc2)c(C(C)C)cc1-c1ccccc1.[Br-]				MIC (Klebsiella pneumoniae [4]): 8 µg/mL; MIC (Escherichia coli [5]): 8 µg/mL; MIC (Acinetobacter baumannii [6]): 8 µg/mL; MIC (Klebsiella pneumoniae [7]): 8 µg/mL; IC50 at 72 h [8]: 18.8 µg/mL; MIC (Pseudomonas aeruginosa [9]): > 64 µg/mL; MIC (Pseudomonas aeruginosa [10]): > 64 µg/mL; MIC (Escherichia coli [11]): 8 µg/mL; MIC (Acinetobacter baumannii [12]): 8 µg/mL
Cc1cc(O)c(C(C)C)cc1-c1cccc(Cl)c1	8 µg/mL (≈ 30.7 µM)	8 µg/mL (≈ 30.7 µM)	4 µg/mL (≈ 15.3 µM)	

Compound	MIC (Staphylococcus aureus [1])	MIC (Staphylococcus aureus [2])	MIC (Staphylococcus aureus [3])	also measured
Cc1cc(O)c(C(C)C)cc1-c1ccc(C(=O)O)cc1	16 µg/mL (≈ 59.2 µM)	8 µg/mL (≈ 29.6 µM)	16 µg/mL (≈ 59.2 µM)	
COc1ccc(-c2cc(C(C)C)c(O)cc2C)cc1	32 µg/mL (≈ 125 µM)	16 µg/mL (≈ 62.4 µM)	16 µg/mL (≈ 62.4 µM)	
Cc1cc(OC(=O)CCCCCCCC[P+](c2ccccc2)(c2ccccc2)c2ccccc2)c(C(C)C)cc1-c1ccccc1.[Br-]				MIC (Klebsiella pneumoniae [4]): 64 µg/mL; MIC (Escherichia coli [5]): 4 µg/mL; MIC (Acinetobacter baumannii [6]): 8 µg/mL; MIC (Klebsiella pneumoniae [7]): 64 µg/mL; IC50 at 72 h [8]: 13.2 µg/mL; MIC (Pseudomonas aeruginosa [9]): 32 µg/mL; MIC (Pseudomonas aeruginosa [10]): 64 µg/mL; MIC (Escherichia coli [11]): 16 µg/mL; MIC (Acinetobacter baumannii [12]): 16 µg/mL
Cc1cc(O)c(C(C)C)cc1-c1cccc(C(=O)O)c1	8 µg/mL (≈ 29.6 µM)	16 µg/mL (≈ 59.2 µM)	8 µg/mL (≈ 29.6 µM)	
Cc1cc(O)c(C(C)C)cc1-c1ccccc1Cl	8 µg/mL (≈ 30.7 µM)	8 µg/mL (≈ 30.7 µM)	8 µg/mL (≈ 30.7 µM)	
Cc1cc(O)c(C(C)C)cc1-c1cccc(C(F)(F)F)c1	4 µg/mL (≈ 13.6 µM)	8 µg/mL (≈ 27.2 µM)	8 µg/mL (≈ 27.2 µM)	
Cc1cc(O)c(C(C)C)cc1-c1ccccc1C#N	8 µg/mL (≈ 31.8 µM)	8 µg/mL (≈ 31.8 µM)	16 µg/mL (≈ 63.7 µM)	
Cc1cc(O)c(C(C)C)cc1-c1ccccc1C(F)(F)F	8 µg/mL (≈ 27.2 µM)	16 µg/mL (≈ 54.4 µM)	8 µg/mL (≈ 27.2 µM)	
COc1cccc(-c2cc(C(C)C)c(O)cc2C)c1	16 µg/mL (≈ 62.4 µM)	16 µg/mL (≈ 62.4 µM)	16 µg/mL (≈ 62.4 µM)	
Cc1cc(O)c(C(C)C)cc1-c1ccc(Cl)cc1	4 µg/mL (≈ 15.3 µM)	8 µg/mL (≈ 30.7 µM)	8 µg/mL (≈ 30.7 µM)	
Cc1cc(OC(=O)CCCCCCCCC[P+](c2ccccc2)(c2ccccc2)c2ccccc2)c(C(C)C)cc1-c1ccccc1.[Br-]				MIC (Klebsiella pneumoniae [4]): 32 µg/mL; MIC (Escherichia coli [5]): 4 µg/mL; MIC (Acinetobacter baumannii [6]): 16 µg/mL; MIC (Klebsiella pneumoniae [7]): > 64 µg/mL; IC50 at 72 h [8]: 8.67 µg/mL; MIC (Pseudomonas aeruginosa [9]): 32 µg/mL; MIC (Pseudomonas aeruginosa [10]): 32 µg/mL; MIC (Escherichia coli [11]): 64 µg/mL; MIC (Acinetobacter baumannii [12]): 32 µg/mL
Cc1cc(O)c(C(C)C)cc1-c1ccc(O)cc1	> 64 µg/mL	> 64 µg/mL	> 64 µg/mL	
Cc1cc(O)c(C(C)C)cc1-c1cccc(F)c1	16 µg/mL (≈ 65.5 µM)	16 µg/mL (≈ 65.5 µM)	16 µg/mL (≈ 65.5 µM)	
Cc1cc(O)c(C(C)C)cc1-c1ccc(C#N)cc1	16 µg/mL (≈ 63.7 µM)	32 µg/mL (≈ 127 µM)	16 µg/mL (≈ 63.7 µM)	
Cc1cc(OC(=O)CCCCCCC[P+](c2ccccc2)(c2ccccc2)c2ccccc2)c(C(C)C)cc1-c1ccccc1.[Br-]				MIC (Klebsiella pneumoniae [4]): 16 µg/mL; MIC (Escherichia coli [5]): 4 µg/mL; MIC (Acinetobacter baumannii [6]): 16 µg/mL; MIC (Klebsiella pneumoniae [7]): 16 µg/mL; IC50 at 72 h [8]: 21.1 µg/mL; MIC (Pseudomonas aeruginosa [9]): 32 µg/mL; MIC (Pseudomonas aeruginosa [10]): 32 µg/mL; MIC (Escherichia coli [11]): 8 µg/mL; MIC (Acinetobacter baumannii [12]): 8 µg/mL
CN[C@H](CC(C)C)C(=O)N[C@H]1C(=O)N[C@@H](CC(N)=O)C(=O)N[C@H]2C(=O)N[C@H]3C(=O)N[C@H](C(=O)N[C@H](C(=O)O)c4cc(O)cc(O)c4-c4cc3ccc4O)[C@H](O)c3ccc(c(Cl)c3)Oc3cc2cc(c3O[C@@H]2O[C@H](CO)[C@@H](O)[C@H](O)[C@H]2O[C@H]2C[C@](C)(N)[C@H](O)[C@H](C)O2)Oc2ccc(cc2Cl)[C@H]1O				AC200 (Staphylococcus aureus [13]): Active
Cc1cccc(-c2cc(C(C)C)c(O)cc2C)c1	8 µg/mL (≈ 33.3 µM)	8 µg/mL (≈ 33.3 µM)	16 µg/mL (≈ 66.6 µM)	
Cc1cc(OC(=O)CC[P+](c2ccccc2)(c2ccccc2)c2ccccc2)c(C(C)C)cc1-c1ccccc1.[Br-]				MIC (Klebsiella pneumoniae [4]): 32 µg/mL; MIC (Escherichia coli [5]): 4 µg/mL; MIC (Acinetobacter baumannii [6]): 16 µg/mL; MIC (Klebsiella pneumoniae [7]): > 64 µg/mL; IC50 at 72 h [8]: 7.96 µg/mL; MIC (Pseudomonas aeruginosa [9]): > 64 µg/mL; MIC (Pseudomonas aeruginosa [10]): > 64 µg/mL; MIC (Escherichia coli [11]): > 64 µg/mL; MIC (Acinetobacter baumannii [12]): 32 µg/mL
